Here are results for two compounds from US7655671B2, “Morphinan derivatives, the quaternary ammonium salts thereof substituted in position 14, method for production and use thereof” (priority 2002, dated 2010).

In one data set the target is T1, μ-opioid receptors (Rattus norvegicus, UniProt P33535).
T1 construct: from tissue; host or cells: rat brain homogenate
Nature of the data set: Opioid receptor binding studies on rat's brain homogenisates with [3H]DAMGO.

For a further data set, the target named is T2, μ-receptors (Mus musculus, UniProt P42866).
T2 construct: Vas Deferens Preparation of the Mouse; from tissue; host or cells: mouse vas deferens
The experiment in a line: Antagonistic activity in the vas deferens preparation of the mouse using DAMGO. Type of data set: biochemical. More on the design: Ke (vM) (μ-receptors): unit not given here.

Like-named read-outs stand apart in the source and are kept apart here.

T1 sequence (P33535 whole entry): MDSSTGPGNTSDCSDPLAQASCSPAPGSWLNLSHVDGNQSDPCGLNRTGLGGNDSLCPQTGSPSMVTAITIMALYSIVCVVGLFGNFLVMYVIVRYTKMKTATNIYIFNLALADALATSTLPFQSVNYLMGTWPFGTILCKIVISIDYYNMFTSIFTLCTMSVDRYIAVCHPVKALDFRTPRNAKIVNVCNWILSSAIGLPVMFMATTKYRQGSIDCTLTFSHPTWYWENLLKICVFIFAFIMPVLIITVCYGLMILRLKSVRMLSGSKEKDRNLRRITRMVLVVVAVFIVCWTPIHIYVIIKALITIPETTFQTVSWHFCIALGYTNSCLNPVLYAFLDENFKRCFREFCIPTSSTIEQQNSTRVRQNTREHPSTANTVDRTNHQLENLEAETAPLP
T2 sequence (P42866 whole entry): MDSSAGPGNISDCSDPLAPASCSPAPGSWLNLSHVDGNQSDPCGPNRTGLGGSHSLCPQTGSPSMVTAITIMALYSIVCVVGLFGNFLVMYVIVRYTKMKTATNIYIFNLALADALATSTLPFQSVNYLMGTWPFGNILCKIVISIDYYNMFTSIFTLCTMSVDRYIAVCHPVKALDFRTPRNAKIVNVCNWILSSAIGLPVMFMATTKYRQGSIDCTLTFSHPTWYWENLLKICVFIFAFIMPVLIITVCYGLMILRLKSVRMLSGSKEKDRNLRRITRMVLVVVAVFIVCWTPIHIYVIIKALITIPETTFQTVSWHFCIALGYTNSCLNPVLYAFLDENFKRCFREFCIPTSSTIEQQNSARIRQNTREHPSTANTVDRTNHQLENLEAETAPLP

For the compound `COc1c(O)ccc2c1[C@]13CCN(CC4CC4)[C@H](C2)[C@]1(OC)CCC(=O)C3` [3-hydroxycyprodime, reference compound], the Ki at μ-opioid receptors ([3H]DAMGO as radio-ligand, rat's brain homogenisates, read-out: Ki (nM) (μ-receptors)) is 6.15 nM. The “affinity to μ-opioid receptors (in words)” value at μ-opioid receptors ([3H]DAMGO, rat's brain homogenisates) is reported as “clearly lower affinity”. Moreover, the “Ke (vM) (μ-receptors)” value on μ-receptors (antagonistic Ke against DAMGO) is given as 5.62.
As for `C[N@+]1(CC2CC2)CC[C@]23c4c5ccc(O)c4O[C@H]2C(=O)CC[C@@]3(OCCCc2ccccc2)[C@H]1C5.[I-]` [Compound 48, (17R)-17-cyclopropylmethyl-4,5α-epoxy-3-hydroxy-17-methyl-6-oxo-14β-[(3-phenylpropyl)oxy]morphinanium-iodide], the melting point lay in the range of 175 to 176 °C. Further, at μ-opioid receptors, the affinity, expressed as Ki, was 0.93 nM. The “antagonistic activity to μ-opioid receptors (in words)” value on μ-receptors (DAMGO) is “very high antagonistic activity”.
